Laboratory results taken from US20220033397A1, “PHARMACEUTICAL COMPOUNDS AND THEIR USE AS INHIBITORS OF UBIQUITIN SPECIFIC PROTEASE 19 (USP19)” (ALMAC DISCOVERY LIMITED, priority 2018, published 2022).

biological target: T1, Full-length USP19 (Homo sapiens, UniProt O94966); assay: USP19 fluorescence polarisation (FP) homogeneous assay with Ubiquitin-Lys-TAMRA substrate; type: biochemical; conditions: 2.5 nM USP19, 30 min pre-incubation, average of at least two duplicate experiments
T1 construct: Full-length USP19 was purchased from Boston Biochem (E-576); purchased Boston Biochem E-576
T1 sequence (O94966 1-1318): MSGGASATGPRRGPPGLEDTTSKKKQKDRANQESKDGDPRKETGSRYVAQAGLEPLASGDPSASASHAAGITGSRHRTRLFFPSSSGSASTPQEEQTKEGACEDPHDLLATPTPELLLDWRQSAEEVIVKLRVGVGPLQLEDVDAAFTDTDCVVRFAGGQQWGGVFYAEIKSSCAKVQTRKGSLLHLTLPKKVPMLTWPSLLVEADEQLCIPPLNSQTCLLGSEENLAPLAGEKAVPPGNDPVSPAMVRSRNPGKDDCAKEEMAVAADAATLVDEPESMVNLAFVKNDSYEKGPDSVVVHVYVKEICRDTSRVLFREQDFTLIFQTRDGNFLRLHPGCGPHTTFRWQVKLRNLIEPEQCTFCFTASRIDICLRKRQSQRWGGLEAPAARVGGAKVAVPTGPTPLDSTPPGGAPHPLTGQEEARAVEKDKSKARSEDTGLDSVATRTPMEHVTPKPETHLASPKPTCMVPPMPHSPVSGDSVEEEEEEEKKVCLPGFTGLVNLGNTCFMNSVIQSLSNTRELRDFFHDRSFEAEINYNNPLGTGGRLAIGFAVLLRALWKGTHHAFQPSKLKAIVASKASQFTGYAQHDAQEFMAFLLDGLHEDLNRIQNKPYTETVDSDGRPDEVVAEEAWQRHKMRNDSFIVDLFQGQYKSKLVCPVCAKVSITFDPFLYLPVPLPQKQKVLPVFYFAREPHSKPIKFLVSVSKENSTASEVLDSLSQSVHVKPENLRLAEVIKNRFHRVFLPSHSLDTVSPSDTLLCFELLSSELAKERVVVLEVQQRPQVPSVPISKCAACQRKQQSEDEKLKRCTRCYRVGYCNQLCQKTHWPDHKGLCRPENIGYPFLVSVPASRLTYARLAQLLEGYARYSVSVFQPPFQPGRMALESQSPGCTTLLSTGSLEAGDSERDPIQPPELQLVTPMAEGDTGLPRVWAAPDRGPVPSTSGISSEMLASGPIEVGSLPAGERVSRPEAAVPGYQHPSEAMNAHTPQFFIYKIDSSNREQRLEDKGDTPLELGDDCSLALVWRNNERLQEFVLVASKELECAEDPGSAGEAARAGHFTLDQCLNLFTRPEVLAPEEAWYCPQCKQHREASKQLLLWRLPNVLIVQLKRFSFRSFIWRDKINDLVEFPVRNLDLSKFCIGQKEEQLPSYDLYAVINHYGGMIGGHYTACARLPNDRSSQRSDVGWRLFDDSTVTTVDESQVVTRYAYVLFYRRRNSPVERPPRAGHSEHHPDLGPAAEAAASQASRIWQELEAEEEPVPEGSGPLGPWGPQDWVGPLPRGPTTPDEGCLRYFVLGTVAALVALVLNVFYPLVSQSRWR
Summary of the method: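 Full-length USP19 preincubated 30 min at RT with inhibitor (200 μM to 2 μM series, 8–18 points) before adding 500 nM Ubiquitin-Lys-TAMRA substrate.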

SMILES	IC50
O=C(N1CCC(O)(Cn2cnc(-c3ccccc3)cc2=O)C2(CCCC2)C1)N1CCNCC1c1cccnc1 (stereo not drawn) [Example 274, 3-((10-Hydroxy-7-(2-(pyridin-3-yl)piperazine-1-carbonyl)-7-azaspiro[4.5]decan-10-yl)methyl)-6-phenylpyrimidin-4(3H)-one]	0.5 to 5 µM
CSc1ncc2c(=O)n(CC3(O)CCN(C(=O)[C@H](C)CC4CCCCC4)CC34CCCC4)n(C)c2n1 (stereo partly drawn) [Example 54, 2-((7-((R)-3-Cyclohexyl-2-methylpropanoyl)-10-hydroxy-7-azaspiro[4.5]decan-10-yl)methyl)-1-methyl-6-(methylthio)-1,2-dihydro-3H-pyrazolo[3,4-d]pyrimidin-3-one]	< 0.5 µM
CN(C)C(=O)c1cn(CC2(O)CCN(C(=O)N(C)C)CC23CCCC3)c(=O)cc1-c1ccccc1 (stereo not drawn) [Example 86, 10-((5-(Dimethylcarbamoyl)-2-oxo-4-phenylpyridin-1(2H)-yl)methyl)-10-hydroxy-N,N-dimethyl-7-azaspiro[4.5]decane-7-carboxamide]	5 to 50 µM
O=C(N1CC[C@@](O)(Cn2cnc(-c3ccccc3)cc2=O)C2(CCCC2)C1)N1CCNCC1c1ccsc1 (stereo partly drawn) [Example 337, 3-(((10S)-10-Hydroxy-7-(2-(thiophen-3-yl)piperazine-1-carbonyl)-7-azaspiro[4.5]decan-10-yl)methyl)-6-phenylpyrimidin-4(3H)-one]	< 0.5 µM
C[C@H](CC(F)(F)F)C(=O)N1CCC(O)(Cn2cnc3cc(Cl)ccc3c2=O)C2(CCCC2)C1 (stereo partly drawn) [Example 134, 7-Chloro-3-((10-hydroxy-7-((R)-4,4,4-trifluoro-2-methylbutanoyl)-7-azaspiro[4.5]decan-10-yl)methyl)quinazolin-4(3H)-one]	5 to 50 µM
CS(=O)(=O)c1cn(CC2(O)CCN(C(=O)N3CCNC[C@H]3c3ccccc3)CC23CCCC3)c(=O)cc1-c1ccccc1 (stereo partly drawn) [Example 188, 1-((10-Hydroxy-7-((R)-2-phenylpiperazine-1-carbonyl)-7-azaspiro[4.5]decan-10-yl)methyl)-5-(methylsulfonyl)-4-phenylpyridin-2(1H)-one]	< 0.5 µM
CSc1cn(CC2(O)CCN(C(=O)[C@H](C)CC3CCCCC3)CC23CCCC3)c(=O)cc1Cl (stereo partly drawn) [Example 76, 4-Chloro-1-((7-((R)-3-cyclohexyl-2-methylpropanoyl)-10-hydroxy-7-azaspiro[4.5]decan-10-yl)methyl)-5-(methylthio)pyridin-2(1H)-one]	< 0.5 µM
O=C(N1CCC(O)(Cn2cnc(-c3ccccc3)cc2=O)C2(CCOCC2)C1)N1CCOC[C@H]1c1ccccc1 (stereo partly drawn) [Example 325, 3-((5-Hydroxy-2-((R)-3-phenylmorpholine-4-carbonyl)-9-oxa-2-azaspiro[5.5]undecan-5-yl)methyl)-6-phenylpyrimidin-4(3H)-one]	< 0.5 µM
C[C@H](CC1CCCCC1)C(=O)N1CCC(O)(Cn2ccncc2=O)C(C)(C)C1 (stereo partly drawn) [Example 1, 1-((1-((R)-3-Cyclohexyl-2-methylpropanoyl)-4-hydroxy-3,3-dimethylpiperidin-4-yl)methyl)pyrazin-2(1H)-one]	0.5 to 5 µM
Cc1cccc(F)c1-c1cc(=O)n(C[C@]2(O)CCN(C(=O)N3CCNC[C@H]3c3ccccc3)CC23CCCC3)cn1 [Example 382, 6-(2-Fluoro-6-meth-ylphenyl)-3-(((S)-10-hydroxy-7-((R)-2-phenylpiperazine-1-carbonyl)-7-aza-spiro[4.5]decan-10-yl)methyl)pyrimidin-4(3H)-one]	< 0.5 µM
O=C(N1CCC(O)(Cn2cnc(-c3ccccc3)cc2=O)C2(CCCC2)C1)N1CCCC1C(F)(F)F (stereo not drawn) [Example 206, 3-((10-Hydroxy-7-(2-(trifluoromethyl)pyrrolidine-1-carbonyl)-7-azaspiro[4.5]decan-10-yl)methyl)-6-phenylpyrimidin-4(3H)-one]	0.5 to 5 µM
CN(Cc1ccoc1)C(=O)N1CCC(O)(Cn2cnc(-c3ccccc3)cc2=O)C2(CCCC2)C1 (stereo not drawn) [Example 232, N-(Furan-3-ylmethyl)-10-hydroxy-N-methyl-10-((6-oxo-4-phenylpyrimidin-1(6H)-yl)methyl)-7-azaspiro[4.5]decane-7-carboxamide]	0.5 to 5 µM
CCC1CCN(CC2(O)CCN(C(=O)[C@H](C)CC(F)(F)F)CC23CCCC3)C(=O)C1 (stereo partly drawn) [Example 100, 4-Ethyl-1-((10-hydroxy-7-((R)-4,4,4-trifluoro-2-methylbutanoyl)-7-azaspiro[4.5]decan-10-yl)methyl)piperidin-2-one]	5 to 50 µM
O=C(NCc1ccccc1)N1CCC(O)(Cn2cnc(N3CCCC3)cc2=O)C2(CCCC2)C1 (stereo not drawn) [Example 202, N-Benzyl-10-hydroxy-10-((6-oxo-4-(pyrrolidin-1-yl)pyrimidin-1(6H)-yl)methyl)-7-azaspiro[4.5]decane-7-carboxamide]	5 to 50 µM
CC(C1CC1)N(C)C(=O)N1CCC(O)(Cn2cnc(-c3ccccc3)cc2=O)C2(CCCC2)C1 (stereo not drawn) [Example 247, N-(1-Cyclopropylethyl)-10-hydroxy-N-methyl-10-((6-oxo-4-phenylpyrimidin-1(6H)-yl)methyl)-7-azaspiro[4.5]decane-7-carboxamide]	5 to 50 µM
C[C@H](CC(F)(F)F)C(=O)N1CCC(O)(Cn2cnc3cc(F)ccc3c2=O)C2(CCCC2)C1 (stereo partly drawn) [Example 156, 7-Fluoro-3-((10-hydroxy-7-((R)-4,4,4-trifluoro-2-methylbutanoyl)-7-azaspiro[4.5]decan-10-yl)methyl)quinazolin-4(3H)-one]	5 to 50 µM
COc1cccc(F)c1-c1cc(=O)n(C[C@]2(O)CCN(C(=O)N3CCNC[C@H]3c3ccccc3)CC23CCCC3)cn1 [Example 381, 6-(2-Fluoro-6-meth-oxyphenyl)-3-(((S)-10-hydroxy-7-((R)-2-phenylpiperazine-1-carbonyl)-7-aza-spiro[4.5]decan-10-yl)methyl)pyrimidin-4(3H)-one]	< 0.5 µM
C[C@H](CC(F)(F)F)C(=O)N1CCC(O)(CN2CCN(c3ccccc3)CC2=O)C2(CCCC2)C1 (stereo partly drawn) [Example 110, 1-((10-Hydroxy-7-((R)-4,4,4-trifluoro-2-methylbutanoyl)-7-azaspiro[4.5]decan-10-yl)methyl)-4-phenylpiperazin-2-one]	< 0.5 µM
CCn1ncc2c(=O)n(CC3(O)CCN(C(=O)[C@H](C)CC4CCCCC4)CC34CCCC4)cnc21 (stereo partly drawn) [Example 124, 5-((7-((R)-3-Cyclohexyl-2-methylpropanoyl)-10-hydroxy-7-azaspiro[4.5]decan-10-yl)methyl)-1-ethyl-1,5-dihydro-4H-pyrazolo[3,4-d]pyrimidin-4-one]	< 0.5 µM
Cn1ncc2c(=O)n(CC3(O)CCN(C(=O)N4CCNC[C@H]4c4ccccc4)CC34CCCC4)cnc21 (stereo partly drawn) [Example 182, 5-((10-Hydroxy-7-((R)-2-phenylpiperazine-1-carbonyl)-7-azaspiro[4.5]decan-10-yl)methyl)-1-methyl-1,5-dihydro-4H-pyrazolo[3,4-d]pyrimidin-4-one]	< 0.5 µM
C[C@H](CC1CCCCC1)C(=O)N1CCC(O)(Cn2ccncc2=O)C2(CCCC2)C1 (stereo partly drawn) [Example 3, 1-((7-((R)-3-Cyclohexyl-2-methylpropanoyl)-10-hydroxy-7-azaspiro[4.5]decan-10-yl)methyl)pyrazin-2(1H)-one]	0.5 to 5 µM
CC1CCCN1C(=O)N1CCC(O)(Cn2cnc(-c3ccccc3)cc2=O)C2(CCCC2)C1 (stereo not drawn) [Example 233, 3-((10-Hydroxy-7-(2-methylpyrrolidine-1-carbonyl)-7-azaspiro[4.5]decan-10-yl)methyl)-6-phenylpyrimidin-4(3H)-one]	5 to 50 µM
COc1ccc(-c2cc(=O)n(C[C@]3(O)CCN(C(=O)N4CCNC[C@H]4c4ccccc4)CC34CCCC4)cn2)s1 [Example 345, 3-(((S)-10-Hydroxy-7-((R)-2-phenylpiperazine-1-carbonyl)-7-azaspiro[4.5]decan-10-yl)methyl)-6-(5-methoxythiophen-2-yl)pyrimidin-4(3H)-one]	< 0.5 µM
CC1(C)CN(C(=O)N2CCNC[C@H]2c2ccccc2)CC[C@@]1(O)Cn1ccc(-c2ccccc2)cc1=O [Example 288, 1-(((S)-4-Hydroxy-3,3-dimethyl-1-((R)-2-phenylpiperazine-1-carbonyl)piperidin-4-yl)methyl)-4-phenylpyridin-2(1H)-one]	< 0.5 µM
